From paper PMC9502539, “1,2,3-Triazole-Benzofused Molecular Conjugates as Potential Antiviral Agents against SARS-CoV-2 Virus Variants” (Life, 2022)
Where two headings read alike, the source gives them in different places.

Biological target: Omicron spike protein (Severe acute respiratory syndrome coronavirus 2, UniProt P0DTC2, E484A/G339D/G446S/G496S/K417N/N440K/N501Y/Q493R/Q498R/S371L/S373P/S375F/S477N/T478K/Y505H)
Assay type: binding, SARS-CoV-2 Omicron variant (B.1.1.529 BA.1)

## Cc1onc(NS(=O)(=O)c2ccc(-n3cc(CSc4nc5ccccc5n4Cc4cn(-c5ccc(S(=O)(=O)Nc6noc(C)c6C)cc5)nn4)nn3)cc2)c1C [compound 9]
0.1 µM
  remaining activity % of omicron spike proteins: 65.8%
0.2 µM
  remaining activity % of omicron spike proteins: 30.4%
0.5 µM
  remaining activity % of omicron spike proteins: 10.3%
0.75 µM
  remaining activity % of omicron spike proteins: 5.1%
1 µM
  remaining activity % of omicron spike proteins: 2%

## CC(C)(O/N=C(\C(=O)N[C@@H]1C(=O)N2C(C(=O)[O-])=C(C[n+]3ccccc3)CS[C@H]12)c1csc(N)n1)C(=O)O [Ceftazidime, ceftazidime, reference compound]
0.1 µM
  remaining activity % of omicron spike proteins: 89%
0.2 µM
  remaining activity % of omicron spike proteins: 68%
0.5 µM
  remaining activity % of omicron spike proteins: 54%
0.75 µM
  remaining activity % of omicron spike proteins: 44%
1 µM
  remaining activity % of omicron spike proteins: 34%

## O=C(Cn1cc(CSc2nc3ccccc3n2Cc2cn(CC(=O)NNC(=S)Nc3ccccc3)nn2)nn1)NNC(=S)Nc1ccccc1 [compound 4]
0.1 µM
  remaining activity % of omicron spike proteins: 73.1%
0.2 µM
  remaining activity % of omicron spike proteins: 40%
0.5 µM
  remaining activity % of omicron spike proteins: 20%
0.75 µM
  remaining activity % of omicron spike proteins: 10%
1 µM
  remaining activity % of omicron spike proteins: 8%

## Nn1c(Cn2cc(CSc3nc4ccccc4n3Cc3cn(Cc4n[nH]c(=S)n4N)nn3)nn2)n[nH]c1=S [compound 7]
0.1 µM
  remaining activity % of omicron spike proteins: 85%
0.2 µM
  remaining activity % of omicron spike proteins: 43%
0.5 µM
  remaining activity % of omicron spike proteins: 40%
0.75 µM
  remaining activity % of omicron spike proteins: 35%
1 µM
  remaining activity % of omicron spike proteins: 30%

## S=c1[nH]nc(Cn2cc(CSc3nc4ccccc4n3Cc3cn(Cc4n[nH]c(=S)n4-c4ccccc4)nn3)nn2)n1-c1ccccc1 [compound 6]
0.1 µM
  remaining activity % of omicron spike proteins: 79%
0.2 µM
  remaining activity % of omicron spike proteins: 45.6%
0.5 µM
  remaining activity % of omicron spike proteins: 29%
0.75 µM
  remaining activity % of omicron spike proteins: 16%
1 µM
  remaining activity % of omicron spike proteins: 10%

## O=C(Cn1cc(CSc2nc3ccccc3n2Cc2cn(CC(=O)NNC(=S)Nc3ccc(F)cc3)nn2)nn1)NNC(=S)Nc1ccc(F)cc1 [compound 5]
0.1 µM
  remaining activity % of omicron spike proteins: 82%
0.2 µM
  remaining activity % of omicron spike proteins: 38.7%
0.5 µM
  remaining activity % of omicron spike proteins: 30%
0.75 µM
  remaining activity % of omicron spike proteins: 20%
1 µM
  remaining activity % of omicron spike proteins: 16%

## Cc1ccc2nc(NC(=O)Cn3cc(CN4C(=O)C(=O)c5ccccc54)nn3)sc2c1 [compound 12]
0.1 µM
  remaining activity % of omicron spike proteins: 94%
0.2 µM
  remaining activity % of omicron spike proteins: 90%
0.5 µM
  remaining activity % of omicron spike proteins: 82%
0.75 µM
  remaining activity % of omicron spike proteins: 74%
1 µM
  remaining activity % of omicron spike proteins: 59%
